{
  "source": "patent US8133471B2",
  "about": "“CLK-peptide and SLK-peptide” (New York University, priority 2003, dated 2012)",
  "key": {"[1]": {"system": "denatured collagen type-IV", "assay": "99Tc-CLK-Peptide competitive binding to denatured collagen type-IV (gamma counter)", "details": "collagen 10 μg/ml; 99Tc-CLK-peptide 10 μg/ml", "method": "FIG. 18 Inhibition of 99Tc-CLK-Peptide binding by unlabeled HUI77.\nFIG. 19 Inhibition of Binding of Labeled CLK-Peptide to Denatured Collagen Type-IV by mAb HUI77. Denatured collagen type-IV (10 μg/ml) was coated on microtiter wells and binding of 99Tc-labeled CLK-Peptide in the presence or absence of unlabeled CLK-peptide or mAb HUI77 was measured. As shown in the figure, 99Tc-CLK-peptide (10 μg/ml, 50 μl/well) specifically binds to denatured collagen type-IV (first bar from left). […] 99Tc-CLK-peptide was also allowed to bind to denatured collagen type-IV in the presence or absence of Mab HUI77 (fourth and fifth bars from left). […] These findings provide further evidence that the CLK-peptide binds to a similar if not identical epitope recognized by Mab HUI77.\n^99Tc-CLK-Peptide was used in competitive binding studies to further characterize the CLK epitope. To evaluate the ability of HUI77 to compete with binding to denatured type-IV collagen, type-IV collagen was denatured at 60° C. for 15 minutes at a concentration of […] in PBS. […] The supernatant, washes and collagen-coated wells were counted in a gamma counter (1 minute counts in duplicate).\nIn addition, denatured collagen type-IV (10 μg/ml) was coated on microtiter wells and binding of ^99Tc-labeled CLK-Peptide in the presence or absence of either unlabeled CLK-peptide or mAb HUI77 was measured using a gamma counter. […]"}, "[2]": {"system": "denatured collagen type-IV", "assay": "Competition ELISA, mAb HUIV26 or HUI77 binding to denatured collagen with or without CLK-peptide (Example 16)", "details": "collagen coated at 10 μg/ml; 1:1 ratio", "method": "FIG. 17 CLK-Peptide Binds to the HUI77 Cryptic Collagen Epitope. To examine the epitope bound by CLK, competition ELISAs were carried out. Microtiter wells were coated with denatured collagen type-IV (10 μg/ml), and mAb HUIV26 or HUI77 were allowed to bind the denatured collagen in the presence or absence of CLK-peptide.\nELISAs were performed to examine the binding specificity of CLK-Peptide. Denatured type-IV collagen (10 μg/ml) was coated on microtiter wells and CLK-peptide allowed to bind in the presence or absence of Mab HUI77 or Mab HUIV26 at a 1:1 ratio. HRP-labeled goat anti-mouse secondary antibodies were used to detect murine Mabs HUI77 and HUIV26, directed to distinct cryptic epitope within collagen type-IV, and the O.D. at 490 nm measured."}, "[3]": {"system": "bFGF-induced angiogenesis in chick chorioallantoic membrane (CAM)", "assay": "bFGF-induced angiogenesis in the chick CAM model", "type": "in vivo", "source_text": "FIG. 3A, FIG. 3B, and FIG. 3C depict a chick chorioallantoic membrane (CAM) without bFGF-induced angiogenesis, a CAM following bFGF-induced angiogenesis, and a CAM treated with CLK-peptide after bFGF-induced angiogenesis, respectively.\nFIG. 4 is a chart which illustrates quantification of CAM angiogenic blood vessels following bFGF-induced angiogenesis without subsequent CLK-peptide treatment and CAM angiogenic blood vessels following bFGF-induced angiogenesis with subsequent CLK-peptide treatment.\nAngiogenesis was induced within the chorioallantoic membrane (CAM) of 10-day old chick embryos with bFGF. Twenty-four hours later, 8-10 of the embryos were treated with a single intravenous injection of CLK-peptide (100 ug/embryo). At the end of a 3-day incubation period, the CAM tissues were removed for analysis. […] (FIGS. 3 (a),(b),(c)) The single injection of CLK-peptide inhibited bFGF by greater than 95%. […] Eight to ten chick embryos were tested in each of the two groups, and the experiment was repeated three times for a total of 24-30 chick embryos tested."}, "[4]": {"system": "p21CIP1", "assay": "p21CIP1 expression by Western blot in M21 cells", "type": "cell-based, human", "details": "100 μg/ml", "method": "FIG. 12 Inhibition of Cellular Interactions by CLK-Peptide Enhances Expression of P21CIP1 in Human Melanoma (M21) Cells. Non-tissue culture treated 96-well plates were coated with denatured collagen type-IV (10 μg/ml). Human melanoma cells (M21) were allowed to proliferate in the presence or absence of CLK-Peptide or control peptide CTW (100 μg/ml) over a 3-day time course. Cells were then allowed to incubate for 12 hours in 1% serum-containing medium. Expression of P21 CIP1 and actin control were evaluated by Western blotting.\nTo examine whether the cryptic epitope recognized by CLK-peptide plays a role in cellular proliferation, in vitro proliferations assays were carried out (FIG. 13). In addition, the effects of CLK-peptide on expression of the CDK inhibitor p21^CIP1 were examined by Western blotting methods (FIG. 12). Non-tissue culture treated microtiter wells were coated with denatured collagen type-IV. Human M21 melanoma cells were resuspended in 1% RPMI in the presence or absence of CLK or control CTW-peptide (100 μg/ml). Proliferation was monitored by measuring the relative levels of mitochondrial dehydrogenase using a commercially available (WST-I) proliferation kit (Chemicon)."}},
  "data": [
    {"substance": "H-CLKQNGGNFSLG-OH [CLK-peptide, NH2-C-L-K-Q-N-G-G-N-F-S-L-G-COOH]", "values": [
      {"measurement": "inhibition of 99Tc-CLK-peptide binding to denatured collagen type-IV", "setting": "[1]", "result": "dose-dependent inhibition"},
      {"measurement": "blocking of mAb HUI77 binding to denatured collagen", "setting": "[2]", "result": "significantly blocked"},
      {"measurement": "blocking of mAb HUIV26 binding to denatured collagen", "setting": "[2]", "result": "did not block"},
      {"measurement": "adverse effects following injection", "setting": "[3]; chick embryos, 100 ug/embryo intravenous", "result": "No adverse effects"},
      {"measurement": "number of branching vessels within the area of the filter disc", "setting": "[3]; single intravenous injection 100 ug/embryo", "result": "dramatic reduction"},
      {"measurement": "inhibition of bFGF (induced angiogenesis)", "setting": "[3]; single intravenous injection 100 ug/embryo, 3-day incubation", "result": "greater than 95%"},
      {"measurement": "expression of the CDK inhibitor p21CIP1", "setting": "[4]", "result": "up-regulated"}
    ]}
  ]
}
